# Laboratory results as given in patent US20140024674A1, “TRPM5 INHIBITORS SUPPORT BODY WEIGHT REDUCTION WITHOUT REDUCING FOOD INTAKE” (NESTEC S.A., priority 2011, published 2014).
# “Also recorded” adds a separate entry of the source.
# Experiments:
# Trpm5 = molecular target: T1, Trpm5 (Mus musculus, UniProt Q9JJH7); settings: Talayera et al, 2008, FASEB J.; cited from earlier work
# T1 sequence (Q9JJH7 1-1158): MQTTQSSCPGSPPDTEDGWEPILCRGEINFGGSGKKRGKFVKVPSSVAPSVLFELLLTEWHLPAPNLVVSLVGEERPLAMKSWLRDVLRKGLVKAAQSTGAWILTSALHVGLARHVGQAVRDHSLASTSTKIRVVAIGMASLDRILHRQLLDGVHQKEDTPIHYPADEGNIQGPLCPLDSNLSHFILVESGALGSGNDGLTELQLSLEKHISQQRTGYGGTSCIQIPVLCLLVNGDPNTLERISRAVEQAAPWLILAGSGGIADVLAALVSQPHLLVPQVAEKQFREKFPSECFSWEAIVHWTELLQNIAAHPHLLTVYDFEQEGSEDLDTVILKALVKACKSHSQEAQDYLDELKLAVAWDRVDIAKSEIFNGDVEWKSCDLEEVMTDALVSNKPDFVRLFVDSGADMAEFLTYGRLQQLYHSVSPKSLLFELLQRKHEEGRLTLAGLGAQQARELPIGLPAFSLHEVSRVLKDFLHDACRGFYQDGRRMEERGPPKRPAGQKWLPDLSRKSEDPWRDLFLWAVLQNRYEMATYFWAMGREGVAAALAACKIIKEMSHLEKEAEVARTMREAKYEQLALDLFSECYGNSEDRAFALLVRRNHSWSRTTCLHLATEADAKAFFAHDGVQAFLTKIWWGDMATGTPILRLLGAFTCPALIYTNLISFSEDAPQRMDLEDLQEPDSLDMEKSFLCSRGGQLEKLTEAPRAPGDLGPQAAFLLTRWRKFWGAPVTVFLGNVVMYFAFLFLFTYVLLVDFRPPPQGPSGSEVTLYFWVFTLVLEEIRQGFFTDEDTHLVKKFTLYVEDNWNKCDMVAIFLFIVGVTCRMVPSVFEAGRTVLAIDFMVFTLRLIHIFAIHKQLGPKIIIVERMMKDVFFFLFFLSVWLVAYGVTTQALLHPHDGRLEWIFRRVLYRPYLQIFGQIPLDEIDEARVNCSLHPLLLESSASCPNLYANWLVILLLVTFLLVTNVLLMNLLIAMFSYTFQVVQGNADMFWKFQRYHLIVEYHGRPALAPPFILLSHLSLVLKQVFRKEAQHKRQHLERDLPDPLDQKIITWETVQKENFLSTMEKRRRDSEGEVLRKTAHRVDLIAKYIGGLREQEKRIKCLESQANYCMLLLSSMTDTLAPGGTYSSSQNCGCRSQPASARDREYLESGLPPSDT
# [1] = Quinine-supplemented diet in wild type mice over 12 weeks: body weight, body composition (NMR), food intake; type: in vivo; settings: for mean fat mass at the end of the trial: control 7.65 g±0.47
# Experimental: Body composition was determined on […] mice by nuclear magnetic resonance (NMR) using an EchoMRI-900 Body Composition Analyzer (Echo Medical System, LLC, Houston, Tex., USA).
# Three groups of wild type male C57BL6 mice 3 months old, 20 mice per group, were fed either a semi-synthetic (AlN) diet, or AlN diet with 0.1% quinine, or AlN diet with 0.01% quinine.
# Body weight was measured weekly, body composition was measured monthly, food and fluid intake were measured twice a week over a period of 12 weeks.
compound,measurement,setting,value
"C=C[C@H]1CN2CC[C@H]1C[C@H]2[C@H](O)c1ccnc2ccc(OC)cc12 [quinine, (R)-(6-methoxyquinolin-4-yl)((2S,4S,8R)-8-vinylquinuclidin-2-yl)methanol]",inhibition of Trpm5,Trpm5,inhibitor of Trpm5
same,mean fat mass at the end of the trial,"[1]; wild type male C57BL6 mice, AlN diet with 0.01% quinine, 12 weeks, NMR",7.9675 g
same,Body weight gain,"[1]; wild type male C57BL6 mice, AlN diet with 0.01% quinine, 12 weeks, vs control diet",not different from control
same,mean fat mass at the end of the trial,"[1]; wild type male C57BL6 mice, AlN diet with 0.1% quinine, 12 weeks, NMR, p<0.01 compared to control",5.524 g
same,Body weight gain,"[1]; wild type male C57BL6 mice, AlN diet with 0.1% quinine, 12 weeks, vs control diet (p<0.01)",gained less weight; also recorded: significantly lower
same,lean mass,"[1]; wild type male C57BL6 mice, diet with 0.1% or 0.01% quinine vs control diet, 12 weeks, NMR",no difference between groups
same,Total food intake,"[1]; wild type male C57BL6 mice, diet with 0.1% or 0.01% quinine vs control diet, over 12 weeks",food intake was not different between the groups; also recorded: no difference in food intake between groups
same,fat mass gain vs control diet,"[1]; wild type mice, 0.1% quinine supplemented diet, 12 weeks",gained less weight and fat mass
